ChEMBL document CHEMBL5584238, “Psammaplin A analogues with modified disulfide bond targeting histone deacetylases: Synthesis and biological evaluation” (Eur J Med Chem, 2024)
Active and inactive are the calls of the source. The rule behind the calls is not given here.

Assays:
EBC-1 = experiment: Antiproliferative activity against human EBC-1 cells incubated for 48 hrs by MTT assay; assay type: functional, cell-based; details: EBC-1, 48 h
HCT-116 = experiment: Antiproliferative activity against human HCT-116 cells incubated for 48 hrs by MTT assay; assay type: functional, cell-based; details: HCT-116, 48 h
NCI-H1581 = experiment: Antiproliferative activity against human NCI-H1581 cells incubated for 48 hrs by MTT assay; assay type: functional, cell-based; details: NCI-H1581, 48 h
[1] = target: T1, Protein deacetylase HDAC6 (Homo sapiens, UniProt Q9UBN7); experiment: Inhibition of recombinant human HDAC6 using Boc-Lys(Ac)-AMC as substrate preincubated for 1 hr followed by substrate addition and measured after 2 hrs by microplate reader assay
T1 sequence (Q9UBN7 whole entry): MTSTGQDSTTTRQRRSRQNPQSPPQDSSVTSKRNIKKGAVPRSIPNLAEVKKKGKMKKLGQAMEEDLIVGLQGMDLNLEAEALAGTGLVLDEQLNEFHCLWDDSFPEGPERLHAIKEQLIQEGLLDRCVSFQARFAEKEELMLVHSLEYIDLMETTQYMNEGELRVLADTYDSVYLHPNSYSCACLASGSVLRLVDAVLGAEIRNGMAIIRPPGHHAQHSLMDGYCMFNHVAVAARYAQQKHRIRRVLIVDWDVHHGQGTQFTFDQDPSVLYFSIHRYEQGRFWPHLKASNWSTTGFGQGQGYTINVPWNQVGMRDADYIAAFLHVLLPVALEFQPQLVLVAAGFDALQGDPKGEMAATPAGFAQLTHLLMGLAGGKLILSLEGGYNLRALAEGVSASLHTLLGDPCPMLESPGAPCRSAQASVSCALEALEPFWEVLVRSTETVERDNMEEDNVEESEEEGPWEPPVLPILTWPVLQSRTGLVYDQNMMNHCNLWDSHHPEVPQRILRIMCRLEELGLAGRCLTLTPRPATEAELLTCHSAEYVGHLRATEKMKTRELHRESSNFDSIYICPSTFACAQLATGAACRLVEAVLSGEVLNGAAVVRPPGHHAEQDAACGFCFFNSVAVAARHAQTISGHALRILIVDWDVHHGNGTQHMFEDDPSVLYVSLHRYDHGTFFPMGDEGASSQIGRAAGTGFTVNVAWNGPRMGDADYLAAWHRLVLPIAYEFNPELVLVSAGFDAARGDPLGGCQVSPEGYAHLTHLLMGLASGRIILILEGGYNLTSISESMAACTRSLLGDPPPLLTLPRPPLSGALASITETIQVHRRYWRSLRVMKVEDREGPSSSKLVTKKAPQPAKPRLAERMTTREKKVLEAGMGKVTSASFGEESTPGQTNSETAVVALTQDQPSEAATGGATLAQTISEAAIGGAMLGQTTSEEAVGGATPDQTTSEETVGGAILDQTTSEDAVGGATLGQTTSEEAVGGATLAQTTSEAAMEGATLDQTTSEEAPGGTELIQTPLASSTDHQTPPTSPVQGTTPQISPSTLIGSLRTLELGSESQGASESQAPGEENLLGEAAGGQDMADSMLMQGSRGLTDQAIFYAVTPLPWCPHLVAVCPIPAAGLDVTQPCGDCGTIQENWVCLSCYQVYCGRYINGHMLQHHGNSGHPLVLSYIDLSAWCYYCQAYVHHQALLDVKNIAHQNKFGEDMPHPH

Histone deacetylase 1 = Histone deacetylase 1 (Homo sapiens, UniProt Q13547); experiment: Inhibition of recombinant human HDAC1 using Boc-Lys(Ac)-AMC as substrate preincubated for 1 hr followed by substrate addition and measured after 2 hrs by microplate reader assay
[2] = target: T2, Protein deacetylase HDAC6 (Homo sapiens) (UniProt Q9UBN7); experiment: Inhibition of HDAC6 in human HCT-116 cells assessed as upregulation of acetylated alpha-tubulin level at 1 uM incubated for 24 hrs by Western blotting analysis; assay type: cell-based
T2 sequence (whole entry): T1 sequence (Q9UBN7 whole entry)

[3] = target: Class 1 histone deacetylase (Homo sapiens) (UniProt Q13547+O15379+Q92769+Q9BY41); experiment: Inhibition of class 1 HDACs in human HCT-116 cells assessed as upregulation of acetylated alpha-H3 level at 1 uM incubated for 24 hrs by Western blotting analysis; assay type: cell-based
Chain of Class 1 histone deacetylase (Homo sapiens) (O15379 whole entry, looked up): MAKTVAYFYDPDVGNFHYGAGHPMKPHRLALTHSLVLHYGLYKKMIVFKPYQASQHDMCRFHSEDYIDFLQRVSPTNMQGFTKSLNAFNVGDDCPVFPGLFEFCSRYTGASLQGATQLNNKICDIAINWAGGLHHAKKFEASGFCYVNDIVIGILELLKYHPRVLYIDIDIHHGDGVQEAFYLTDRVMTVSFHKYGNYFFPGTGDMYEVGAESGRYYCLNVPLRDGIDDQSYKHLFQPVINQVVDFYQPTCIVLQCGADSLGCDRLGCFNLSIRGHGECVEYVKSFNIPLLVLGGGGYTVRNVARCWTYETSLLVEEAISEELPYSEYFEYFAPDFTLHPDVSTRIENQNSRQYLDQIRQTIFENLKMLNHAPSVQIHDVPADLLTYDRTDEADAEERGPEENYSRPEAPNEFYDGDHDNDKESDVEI
Chain of Class 1 histone deacetylase (Homo sapiens) (Q13547 whole entry, looked up): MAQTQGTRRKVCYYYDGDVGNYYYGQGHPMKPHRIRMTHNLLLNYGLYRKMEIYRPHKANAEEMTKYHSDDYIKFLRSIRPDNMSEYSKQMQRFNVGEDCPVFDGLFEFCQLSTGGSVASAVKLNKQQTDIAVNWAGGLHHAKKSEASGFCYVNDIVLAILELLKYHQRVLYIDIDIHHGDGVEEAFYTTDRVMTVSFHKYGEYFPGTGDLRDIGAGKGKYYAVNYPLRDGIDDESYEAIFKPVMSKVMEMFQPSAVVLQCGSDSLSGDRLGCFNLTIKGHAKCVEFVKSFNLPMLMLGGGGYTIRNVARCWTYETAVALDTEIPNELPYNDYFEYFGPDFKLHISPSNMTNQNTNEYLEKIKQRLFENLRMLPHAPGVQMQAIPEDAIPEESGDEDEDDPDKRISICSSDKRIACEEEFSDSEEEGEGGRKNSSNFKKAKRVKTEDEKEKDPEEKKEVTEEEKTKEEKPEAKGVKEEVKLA
Chain of Class 1 histone deacetylase (Homo sapiens) (Q92769 whole entry, looked up): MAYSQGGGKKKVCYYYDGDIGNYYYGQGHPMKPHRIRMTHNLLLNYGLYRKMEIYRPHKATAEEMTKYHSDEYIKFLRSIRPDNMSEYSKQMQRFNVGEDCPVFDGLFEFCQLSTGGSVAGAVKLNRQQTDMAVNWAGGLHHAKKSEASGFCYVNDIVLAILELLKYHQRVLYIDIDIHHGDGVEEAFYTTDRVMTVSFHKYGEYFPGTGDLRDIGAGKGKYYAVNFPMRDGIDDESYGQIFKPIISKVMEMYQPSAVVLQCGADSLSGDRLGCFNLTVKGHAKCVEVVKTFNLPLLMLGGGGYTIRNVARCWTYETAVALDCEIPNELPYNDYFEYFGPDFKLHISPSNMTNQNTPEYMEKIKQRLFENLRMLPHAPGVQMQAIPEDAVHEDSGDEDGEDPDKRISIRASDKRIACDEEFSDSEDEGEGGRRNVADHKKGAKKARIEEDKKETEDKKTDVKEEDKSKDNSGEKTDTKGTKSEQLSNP
Chain of Class 1 histone deacetylase (Homo sapiens) (Q9BY41 whole entry, looked up): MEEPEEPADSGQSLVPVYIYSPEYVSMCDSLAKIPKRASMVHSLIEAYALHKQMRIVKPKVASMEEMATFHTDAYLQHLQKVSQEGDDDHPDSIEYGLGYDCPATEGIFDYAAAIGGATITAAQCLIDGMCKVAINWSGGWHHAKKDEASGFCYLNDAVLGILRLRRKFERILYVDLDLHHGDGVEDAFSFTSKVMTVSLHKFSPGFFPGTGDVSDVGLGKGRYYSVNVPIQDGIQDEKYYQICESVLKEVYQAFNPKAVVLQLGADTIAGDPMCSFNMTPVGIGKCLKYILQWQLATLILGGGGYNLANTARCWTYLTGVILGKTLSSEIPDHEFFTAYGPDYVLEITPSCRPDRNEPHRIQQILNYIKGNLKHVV

Chain of Histone deacetylase 1 (Q13547 whole entry): as the sequence (Q13547 whole entry, looked up) above

Row | SMILES | IC50 (EBC-1) | IC50 (HCT-116) | IC50 (NCI-H1581) | IC50 [1] | IC50 (Histone deacetylase 1) | inhibition [2] | inhibition [3]
1 | O=C(NCCSSCCNC(=O)/C(Cc1ccc(Br)o1)=N/O)/C(Cc1ccc(Br)o1)=N/O | > 10 µM | 1.74 µM | > 10 µM |  |  |  | 
2 | O=C(NC1CC[Se][Se]C1)/C(Cc1ccc(O)c(Br)c1)=N/O (configuration not stated) | > 10 µM | > 10 µM | > 10 µM |  |  |  | 
3 | O=C(NC1CC[Se]SC1)/C(Cc1ccc(Cl)s1)=N/O (configuration not stated) | > 10 µM | > 10 µM | 1.1 µM |  |  |  | 
4 | O=C(NCCSSCCNC(=O)/C(Cc1ccsc1)=N/O)/C(Cc1ccsc1)=N/O | > 10 µM | 8.97 µM | > 10 µM |  |  |  | 
5 | Cc1ccc(C/C(=N\O)C(=O)NCCSSCCNC(=O)/C(Cc2ccc(C)o2)=N/O)o1 | > 10 µM | 6.9 µM | > 10 µM |  |  |  | 
6 | O=C(NC1CS[Se]C1)/C(Cc1ccc(O)cc1)=N/O (configuration not stated) | 3.47 µM | 3.3 µM | 0.84 µM |  |  |  | 
7 | O=C(NC1CSSC1)/C(Cc1cccc(F)c1)=N/O | > 10 µM | > 10 µM | > 10 µM |  |  |  | 
8 | O=C(NC1CC[Se][Se]C1)/C(Cc1ccc(O)cc1)=N/O (configuration not stated) | > 10 µM | > 10 µM | > 10 µM |  |  |  | 
9 | O=C(NC1CCSSC1)/C(Cc1ccc(O)c(Br)c1)=N/O (configuration not stated) | > 10 µM | > 10 µM | > 10 µM |  |  |  | 
10 | O=C(NC1CC[Se]SC1)/C(Cc1ccc(Br)s1)=N/O (configuration not stated) | > 10 µM | > 10 µM | 1.44 µM |  |  |  | 
11 | O=C(NCC[Se][Se]CCNC(=O)/C(Cc1ccc(Cl)s1)=N/O)/C(Cc1ccc(Cl)s1)=N/O | 1.36 µM | 0.5 µM | 0.28 µM |  |  |  | 
12 | O=C(NC1CC[Se]SC1)/C(Cc1ccc(O)cc1)=N/O (configuration not stated) | > 10 µM | > 10 µM | 1.28 µM |  |  |  | 
13 | O=C(NCCSSCCNC(=O)/C(Cc1ccc(O)cc1)=N/O)/C(Cc1ccc(O)cc1)=N/O |  | 6.57 µM |  |  |  |  | 
14 | O=C(NCC[Se][Se]CCNC(=O)/C(Cc1ccc(Br)s1)=N/O)/C(Cc1ccc(Br)s1)=N/O | 0.72 µM | 0.41 µM | 0.3 µM | 3.6 µM | 0.57 µM | Active | Active
15 | O=C(NCCSSCCNC(=O)/C(Cc1ccc(Br)s1)=N/O)/C(Cc1ccc(Br)s1)=N/O | > 10 µM | 2.22 µM | 4.17 µM |  |  |  | 
16 | O=C(NC1C[Se][Se]C1)/C(Cc1ccc(O)c(Br)c1)=N/O | > 10 µM | > 10 µM | > 10 µM |  |  |  | 
17 | CC(C)(CNC(=O)/C(Cc1ccc(O)c(Br)c1)=N/O)SSCCNC(=O)/C(Cc1ccc(O)c(Br)c1)=N/O | > 10 µM | 3.52 µM | 3.75 µM |  |  |  | 
18 | O=C(NC1CCS[Se]C1)/C(Cc1ccc(Cl)s1)=N/O (configuration not stated) | > 10 µM | > 10 µM | 2.46 µM |  |  |  | 

Row | SMILES | IC50 (EBC-1) | IC50 (HCT-116) | IC50 (NCI-H1581) | IC50 [1] | IC50 (Histone deacetylase 1) | inhibition [2] | inhibition [3]
19 | O=C(NC1CCS[Se]C1)/C(Cc1ccc(O)cc1)=N/O (configuration not stated) | > 10 µM | > 10 µM | 2.24 µM |  |  |  | 
20 | O=C(NC1C[Se][Se]C1)/C(Cc1ccc(O)cc1)=N/O | > 10 µM | > 10 µM | > 10 µM |  |  |  | 
21 | O=C(NCC[Se][Se]CCNC(=O)/C(Cc1cccs1)=N/O)/C(Cc1cccs1)=N/O | 1.13 µM | 0.19 µM | 0.16 µM |  |  |  | 
22 | O=C(NC1CCSSC1)/C(Cc1cccc(F)c1)=N/O (configuration not stated) | > 10 µM | > 10 µM | > 10 µM |  |  |  | 
23 | O=C(NC1CS[Se]C1)/C(Cc1ccc(O)c(Br)c1)=N/O (configuration not stated) | 3.31 µM | 1.53 µM | 0.93 µM |  |  |  | 
24 | O=C(NC1CCS[Se]C1)/C(Cc1ccc(Br)s1)=N/O (configuration not stated) | > 10 µM | > 10 µM | 3.6 µM |  |  |  | 
25 | O=C(NCCSSCCNC(=O)/C(Cc1cccs1)=N/O)/C(Cc1cccs1)=N/O | > 10 µM | 4.94 µM | 6.16 µM |  |  |  | 
26 | O=C(NCCSSCCNC(=O)/C(Cc1ccc(Cl)s1)=N/O)/C(Cc1ccc(Cl)s1)=N/O | > 10 µM | 5.48 µM | 4.02 µM |  |  |  | 
27 | N#Cc1ccc(COc2ccc(C/C(=N\O)C(=O)NC3CSSC3)cc2)cc1 | > 10 µM | > 10 µM | > 10 µM |  |  |  | 
28 | O=C(NC1CSSC1)/C(Cc1ccc(O)cc1)=N/O | > 10 µM | 9.67 µM | > 10 µM |  |  |  | 
29 | O=C(NC1CSSC1)/C(Cc1ccc(O)c(Br)c1)=N/O | > 10 µM | 6.02 µM | > 10 µM |  |  |  | 
30 | O=C(NC1CC[Se][Se]C1)/C(Cc1cccc(F)c1)=N/O (configuration not stated) | > 10 µM | > 10 µM | > 10 µM |  |  |  | 
31 | O=C(NCCSSCCNC(=O)/C(Cc1ccc[nH]1)=N/O)/C(Cc1ccc[nH]1)=N/O | > 10 µM | > 10 µM | > 10 µM |  |  |  | 
32 | O=C(NCC[Se][Se]CCNC(=O)/C(Cc1ccco1)=N/O)/C(Cc1ccco1)=N/O | 0.45 µM | 0.41 µM | 0.3 µM |  |  |  | 
33 | O=C(NC1CCSSC1)/C(Cc1ccc(O)cc1)=N/O (configuration not stated) | > 10 µM | > 10 µM | > 10 µM |  |  |  | 
34 | CC(C)(CNC(=O)/C(Cc1ccc(O)c(Br)c1)=N/O)SSC(C)(C)CNC(=O)/C(Cc1ccc(O)c(Br)c1)=N/O | > 10 µM | 5.53 µM | > 10 µM |  |  |  | 
35 | O=C(NCCSSCCNC(=O)/C(Cc1ccco1)=N/O)/C(Cc1ccco1)=N/O | > 10 µM | > 10 µM | > 10 µM |  |  |  | 
